Laboratory results from patent US11566007B2, “Ras inhibitors” (Revolution Medicines, Inc., priority 2019, dated 2023).

Assays:
[1] = system: NCI-H358 cells (K-Ras G12C); assay: Potency assay: pERK in NCI-H358 cells; assay type: cell-based, human; details: Homo sapiens, NCI-H358; H358 KRAS G12C; read-out: pERK EC50
Method in brief: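 Inhibition of cellular pERK after a 4 h treatment, detected by AlphaLISA or In-Cell Western. IC50 from a four-parameter concentration-response fit.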

KRAS G12D = KRAS G12D (Homo sapiens (Human), UniProt P01116+P62937, G12D); assay: Ras-Raf (BRAF RBD) disruption / FRET / MOA assay, KRAS G12D; assay type: biochemical; details: Ras-Raf disruption/FRET/MOA assay; class symbols; read-out: KRAS G12D FRET data IC50
Method in brief: (§1)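 A 10-point, 3-fold dilution series topping at 30 μM final was incubated 3 h at 25° C with the Ras/cyclophilin A/BRAF RBD mixture.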

NRAS G12C = NRAS G12C (Homo sapiens (Human), UniProt P01111+P62937, G12C); assay: Ras-Raf (BRAF RBD) disruption / FRET / MOA assay, NRAS G12C; assay type: biochemical; details: read-out: IC50* NRAS G12C FRET data
Method in brief: as §1

NRAS Q61R = NRAS Q61R (Homo sapiens (Human), UniProt P01111+P62937, Q61R); assay: Ras-Raf (BRAF RBD) disruption / FRET / MOA assay, NRAS Q61R; assay type: biochemical; details: NRAS Q61R; Ras-Raf disruption/FRET/MOA assay; read-out: IC50* NRAS Q61R FRET data
Method in brief: (§2)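 Compounds (30 μM top final, 10-point 3-fold dilutions) incubated 3 h at 25° C with nucleotide-loaded Ras, cyclophilin A and BRAF RBD. Detection with 10 nM anti-His Eu-W1024 and 50 nM anti-GST allophycocyanin over another 1.5 h. Lowered TR-FRET ratio relative to DMSO wells gives IC50.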

NRAS WT = NRAS WT (Homo sapiens (Human), UniProt P01111+P62937); assay: Ras-Raf (BRAF RBD) disruption / FRET / MOA assay, NRAS WT; assay type: biochemical; details: read-out: IC50* NRAS WT FRET data
Method in brief: as §2

Chain of NRAS Q61R (P01111 whole entry Q61R): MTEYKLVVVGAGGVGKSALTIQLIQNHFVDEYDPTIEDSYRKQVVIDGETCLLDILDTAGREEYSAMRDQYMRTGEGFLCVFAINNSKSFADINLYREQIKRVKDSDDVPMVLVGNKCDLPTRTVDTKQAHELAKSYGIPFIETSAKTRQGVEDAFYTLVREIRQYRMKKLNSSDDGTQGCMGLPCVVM
Chain of NRAS Q61R (P62937 whole entry): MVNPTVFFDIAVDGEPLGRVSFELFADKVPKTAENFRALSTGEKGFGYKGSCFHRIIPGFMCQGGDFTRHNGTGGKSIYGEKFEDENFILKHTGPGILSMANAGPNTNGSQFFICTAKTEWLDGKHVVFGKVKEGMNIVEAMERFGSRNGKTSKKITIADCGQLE
Chain of KRAS G12D (P01116-2 other isoform, or with tags, fused parts or gaps G12D): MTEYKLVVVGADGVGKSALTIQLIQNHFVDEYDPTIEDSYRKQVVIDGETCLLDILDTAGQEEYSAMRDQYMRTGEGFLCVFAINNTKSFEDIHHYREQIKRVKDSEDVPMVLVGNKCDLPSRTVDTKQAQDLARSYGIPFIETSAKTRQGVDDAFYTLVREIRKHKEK
Chain of KRAS G12D (P62937 whole entry): as the sequence (P62937 whole entry) above
Chain of NRAS G12C (P01111 whole entry G12C): as the sequence (P01111 whole entry Q61R) above, with G12C, R61Q counted along it
Chain of NRAS G12C (P62937 whole entry): as the sequence (P62937 whole entry) above
Chain of NRAS WT (P01111 whole entry): as the sequence (P01111 whole entry Q61R) above, with R61Q counted along it
Chain of NRAS WT (P62937 whole entry): as the sequence (P62937 whole entry) above

Compound	EC50 [1] [µM]	IC50 (KRAS G12D) [µM]	IC50 (NRAS G12C) [µM]	IC50 (NRAS Q61R) [µM]	IC50 (NRAS WT) [µM]
C=CC(=O)N1CC(N(C)C(=O)N(C)[C@H](C(=O)N[C@H]2Cc3nc(cs3)-c3ccc4c(c3)c(c(-c3cccnc3[C@H](C)OC)n4CC(F)(F)F)CC(C)(C)COC(=O)[C@@H]3CCCN(N3)C2=O)C(C)C)C1 (atropisomer, axis not shown) [Example A711]	< 5	0.1 to 1	< 0.01	0.1 to 1	0.01 to 0.1
CCn1c(-c2cccnc2[C@H](C)OC)c2c3cc(ccc31)-c1csc(n1)C[C@H](NC(=O)[C@@H](COC1CN(C(=O)C#CC(C)(C)N(C)C)C1)C(C)C)C(=O)N1CCC[C@H](N1)C(=O)OCC(C)(C)C2 (atropisomer, axis not shown) [Example A721]	< 5	> 10	< 0.01	> 10	1 to 10
CO[C@@H](C)c1ncccc1-c1c2c3cc(ccc3n1CC(F)(F)F)-c1cccc(c1)C[C@H](NC(=O)[C@H](C(C)C)N(C)C(=O)[C@H]1CCN(C(=O)C#CC(C)(C)N(C)C)C1)C(=O)N1CCC[C@H](N1)C(=O)OCC(C)(C)C2 (atropisomer, axis not shown) [Example A727]	< 5	1 to 10	< 0.01	1 to 10	1 to 10
CCn1c(-c2cccnc2)c2c3cc(ccc31)-c1csc(c1)C[C@H](NC(=O)[C@H](C(C)C)N(C)C(=O)[C@H]1CCN(C(=O)C#CCN3CCOCC3)C1)C(=O)N1CCC[C@H](N1)C(=O)OCC(C)(C)C2 [Example A205]	< 5	> 10	1 to 10	> 10	> 10
C=CC(=O)N1CC[C@H](C(=O)N(C)[C@H](C(=O)N[C@H]2C[C@H]3CN(CCO3)c3ccc4c(c3)c(c(-c3cccnc3COC)n4CC)CC(C)(C)COC(=O)[C@@H]3CCCN(N3)C2=O)C(C)C)C1 [Example A240]	< 5	> 10	1 to 10	> 10	> 10
CCn1c(-c2cccnc2[C@H](C)OC)c2c3cc(ccc31)N1CCO[C@@](C)(C[C@H](NC(=O)[C@H](C(C)C)N(C)C(=O)C3(F)CCN(C(=O)C#CC(C)(C)N(C)C)CC3)C(=O)N3CCC[C@H](N3)C(=O)OCC(C)(C)C2)C1 [Example A550]	< 5	1 to 10	< 0.01	1 to 10	0.1 to 1
C=CC(=O)N1CCO[C@H]2CN(C(=O)N(C)[C@H](C(=O)N[C@H]3C[C@H]4CN(CCO4)c4ccc5c(c4)c(c(-c4cccnc4[C@H](C)OC)n5CC)CC(C)(C)COC(=O)[C@@H]4CCCN(N4)C3=O)C(C)C)C[C@H]21 [Example A562]	< 5	1 to 10	0.1 to 1	> 10	1 to 10
